Test results taken from US20090312396A1, “METHODS FOR CANCER TREATMENT USING TAK1 INHIBITORS” (AstraZeneca AB, priority 2006, published 2009).
Read-outs that look alike come from different tables or passages of the source.

Columns and labels:
[1] = biological target: T1, TAK1 (Homo sapiens, UniProt O43318); assay: TAK1 enzyme inhibition; format: biochemical
T1 sequence (O43318 1-606): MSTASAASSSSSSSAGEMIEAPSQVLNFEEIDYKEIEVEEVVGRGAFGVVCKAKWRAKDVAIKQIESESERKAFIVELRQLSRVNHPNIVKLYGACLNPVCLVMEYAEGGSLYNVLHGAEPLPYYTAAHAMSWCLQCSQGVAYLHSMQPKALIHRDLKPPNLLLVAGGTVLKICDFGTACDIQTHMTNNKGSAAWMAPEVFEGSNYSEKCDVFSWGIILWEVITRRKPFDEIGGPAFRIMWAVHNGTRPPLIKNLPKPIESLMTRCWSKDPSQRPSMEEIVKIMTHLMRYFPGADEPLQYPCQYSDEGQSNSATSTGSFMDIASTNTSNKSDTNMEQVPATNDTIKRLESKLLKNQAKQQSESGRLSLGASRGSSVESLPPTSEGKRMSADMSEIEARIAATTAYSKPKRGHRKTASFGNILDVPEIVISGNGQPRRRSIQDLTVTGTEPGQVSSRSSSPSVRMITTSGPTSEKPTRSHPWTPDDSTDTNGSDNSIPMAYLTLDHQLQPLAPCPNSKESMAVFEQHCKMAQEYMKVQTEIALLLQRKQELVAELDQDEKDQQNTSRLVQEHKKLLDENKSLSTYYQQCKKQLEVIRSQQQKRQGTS
T1 sequence (Q15750 1-504 partner): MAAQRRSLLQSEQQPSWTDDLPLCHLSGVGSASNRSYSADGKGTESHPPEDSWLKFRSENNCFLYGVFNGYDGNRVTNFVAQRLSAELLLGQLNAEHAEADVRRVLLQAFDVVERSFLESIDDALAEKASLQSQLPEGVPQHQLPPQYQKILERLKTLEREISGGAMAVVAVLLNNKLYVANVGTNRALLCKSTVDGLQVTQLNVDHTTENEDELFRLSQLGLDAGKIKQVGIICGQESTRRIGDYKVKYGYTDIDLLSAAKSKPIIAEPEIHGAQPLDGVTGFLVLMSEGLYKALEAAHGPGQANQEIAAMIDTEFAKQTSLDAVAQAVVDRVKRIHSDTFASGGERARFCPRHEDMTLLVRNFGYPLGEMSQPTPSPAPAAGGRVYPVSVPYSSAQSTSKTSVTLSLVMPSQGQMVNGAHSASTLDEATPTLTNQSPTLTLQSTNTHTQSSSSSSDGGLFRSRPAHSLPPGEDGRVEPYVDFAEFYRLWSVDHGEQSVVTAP

[2] = system: WSU-NHL; assay: AlamarBlue proliferation assay, GI50; format: cell-based; conditions: Homo sapiens, 72 hours, Table 4, read-out: GI50 WSU-NHL B-NHL
Experimental: (§1) The TAK1 inhibitors are known in the art (see for example, WO 2003010158, WO 2003010163 and WO2004063186 the disclosures of which are incorporated by reference herein). All cell lines were plated at 10,000 cells/well in flat-bottomed 96 well plates and dosed with test compounds in triplicate over a 10 point dosing range from 0 to 30 μmolesL^−1. All cell lines were incubated with test compounds for a total of 72 hours. Background levels were determined for a control (undosed) plate within 2 hours of dosing test compounds. Following the dosing period, the extent of proliferation was measured by adding 1/10 (vol/vol) AlamarBlue reagent to every well and incubating the plates for a further 4 hours. The reaction was stopped by the addition of SDS to a final concentration of 0.1%. Fluorescence was measured at 545 nm (excitation) and 600 nm (emission). Growth inhibition 50 (GI50) values were determined for each test compound across the panel.

[3] = system: SUDHL4; assay: AlamarBlue proliferation assay, GI50; format: cell-based; conditions: Homo sapiens, SU-DHL-4, 72 hours, Table 4, read-out: GI50 SUDHL4 DLBCL
Experimental: as §1

[4] = system: DOHH2; assay: AlamarBlue proliferation assay, GI50; format: cell-based; conditions: Homo sapiens, DOHH-2, 72 hours, Table 4, read-out: GI50 DOHH2 FL
Experimental: as §1

[5] = system: HEL92.1.7; assay: AlamarBlue proliferation assay, GI50; format: cell-based; conditions: Homo sapiens, HEL 92.1.7, 72 hours, Table 4, read-out: GI50 HEL92.1.7 Erythroleukemia
Experimental: as §1

[6] = system: KG1a; assay: AlamarBlue proliferation assay, GI50; format: cell-based; conditions: Homo sapiens, KG-1a, 72 hours, Table 4, read-out: GI50 KG1a AML
Experimental: as §1

[7] = system: Karpas231; assay: AlamarBlue proliferation assay, GI50; format: cell-based; conditions: Homo sapiens, 72 hours, Table 4, read-out: GI50 Karpas231 B-ALL
Experimental: as §1

[8] = system: OCI-LY19; assay: AlamarBlue proliferation assay, GI50; format: cell-based; conditions: Homo sapiens, 72 hours, Table 4, read-out: GI50 OCI-LY19 DLBCL
Experimental: as §1

[9] = system: Jurkat; assay: AlamarBlue proliferation assay, GI50; format: cell-based; conditions: Homo sapiens, 72 hours, Table 4, read-out: GI50 Jurkat T-ALL
Experimental: as §1

[10] = system: ARH77; assay: AlamarBlue proliferation assay, GI50; format: cell-based; conditions: Homo sapiens, ARH-77, 72 hours
Experimental: as §1

[11] = system: MEC1; assay: AlamarBlue proliferation assay, GI50; format: cell-based; conditions: Homo sapiens, 72 hours
Experimental: as §1

[12] = system: Raji; assay: AlamarBlue proliferation assay, GI50; format: cell-based, human; conditions: 72 hours
Experimental: as §1

[13] = system: MOLP-8; assay: AlamarBlue proliferation assay, GI50; format: cell-based; conditions: Homo sapiens, 72 hours, Table 5, read-out: GI50 MOLP-8 Multiple myeloma
Experimental: as §1
(§2) The experiments to generate the results for both Tables 5 and 6 were performed as described above.

[14] = system: SC-1; assay: AlamarBlue proliferation assay, GI50; format: cell-based; conditions: Homo sapiens, 72 hours, Table 6, read-out: GI50 SC-1 FL
Experimental: as §1, §2

[15] = system: U937; assay: AlamarBlue proliferation assay, GI50; format: cell-based; conditions: Homo sapiens, U-937, 72 hours, Table 6, read-out: GI50 U937 Histiocytic lymphoma
Experimental: as §1, §2

[16] = system: JJN-3; assay: AlamarBlue proliferation assay, GI50; format: cell-based; conditions: Homo sapiens, 72 hours, Table 5, read-out: GI50 JJN-3 plasma cell leukemia
Experimental: as §1, §2

[17] = system: IM-9; assay: AlamarBlue proliferation assay, GI50; format: cell-based; conditions: Homo sapiens, 72 hours, Table 5, read-out: GI50 IM-9 B lymph
Experimental: as §1, §2

IC50 ([1]; Table 4, read-out: TAK1 pIC50 (enzyme) (converted)): 63.1 nM
TAK1 pIC50 ([1]; Table 5): 7.2
GI50 [3]: 3080 nM
GI50 [7]: 60 nM
GI50 [8]: 54 nM
GI50 [9]: 10100 nM
GI50 ([12]; Table 6, read-out: GI50 Raji Burkitts Lymphoma): > 30000 nM
GI50 ([12]; Homo sapiens, Raji, Table 4, read-out: GI50 Raji Burkitts Lymphoma): > 30000 nM
GI50 [15]: 120 nM
SMILES: COC(C)(C)CNCc1ccc(-c2cc(NC(N)=O)c(C(N)=O)s2)cc1 [Compound 4, 3-[(aminocarbonyl)amino]-5-(4-{[(2-methoxy-2-methylpropyl)amino]methyl}phenyl)thiophene-2-carboxamide]
GI50 [2]: 270 nM
GI50 [4]: 101 nM
GI50 [5]: 1470 nM
GI50 [6]: 1090 nM
GI50 ([10]; Table 4, read-out: GI50 ARH77 Plasma cell leukemia): 3720 nM
GI50 ([10]; Table 5, read-out: GI50 ARH-77 plasma cell leukemia): 3720 nM
GI50 ([11]; Table 4, read-out: GI50 MEC1 B-CLL): 2990 nM
GI50 ([11]; Table 6, read-out: GI50 MEC-1 B-CLL): 2990 nM
GI50 [13]: 90 nM
GI50 [14]: 2880 nM
GI50 [16]: 520 nM
GI50 [17]: 210 nM
